Reference: patent publication US9796741B2 (Achillion Pharmaceuticals, Inc., priority 2014, dated 2017)

Target: Human factor D (Homo sapiens (Human), UniProt P00746)
Assay: Human Factor D Assay
Assay type: biochemical
Settings: human factor D 80 nM, substrate Z-L-Lys-SBzl, DTNB
Protocol: Human factor D (purified from human serum, Complement Technology, Inc.) at 80 nM final concentration is incubated with test compound at various concentrations for 5 minutes at room temperature in 50 mM Tris, 1M NaCl, pH 7.5. A synthetic substrate Z-L-Lys-SBzl and DTNB (Ellman's reagent) are added to final concentrations of 100 μM each. The increase in color is recorded at OD405 nm in a microplate in kinetic mode over 30 minutes with 30 second time points in a spectrofluorimeter. IC50 values are calculated by non-linear regression from the percentage of inhibition of complement factor D activity as a function of test compound concentration.

Human factor D, sequence (P00746 26-253): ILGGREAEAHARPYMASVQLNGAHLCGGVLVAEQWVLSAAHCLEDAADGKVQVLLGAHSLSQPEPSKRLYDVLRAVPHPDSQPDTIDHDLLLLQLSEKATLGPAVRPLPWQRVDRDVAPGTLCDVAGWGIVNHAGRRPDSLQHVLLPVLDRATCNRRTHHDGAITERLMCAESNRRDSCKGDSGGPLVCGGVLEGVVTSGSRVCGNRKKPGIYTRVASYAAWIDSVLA

Structure (SMILES)	IC50 [µM]
Cc1cc(NC(=O)[C@@H]2C[C@@H](F)CN2C(=O)Cn2nc(C(N)=O)c3cc(-c4ccnnc4)ccc32)n2nc(C(F)(F)F)nc2n1 [Compound 113, 1-(2-((2S,4R)-4-fluoro-2-(5-methyl-2-(trifluoromethyl)-[1,2,4]triazolo[1,5-a]pyrimidin-7-ylcarbamoyl)pyrrolidin-1-yl)-2-oxoethyl)-5-(pyridazin-4-yl)-1H-indazole-3-carboxamide]	> 10
CC(=O)c1cn(CC(=O)N2[C@@H]3C[C@@H]3C[C@H]2C(=O)Nc2cccc(Br)n2)c2ccc(-c3cncnc3)cc12 [Compound 17, (1R,3S,5R)-2-(2-(3-acetyl-5-(pyrimidin-5-yl)-1H-indol-1-yl)acetyl)-N-(6-bromopyridin-2-yl)-2-azabicyclo[3.1.0] hexane-3-carboxamide]	< 1
COc1ncc(-c2ccc3c(c2)c(C(C)=O)cn3CC(=O)N2[C@@H]3C[C@@H]3C[C@H]2C(=O)Nc2cccc(-c3ccccc3Cl)c2F)cn1 [Compound 80, (1R,3S,5R)-2-(2-(3-acetyl-5-(2-methoxypyrimidin-5-yl)-1H-indol-1-yl)acetyl)-N-(2′-chloro-2-fluorobiphenyl-3-yl)-2-azabicyclo[3.1.0] hexane-3-carboxamide]	< 1
NC(=O)c1nn(CC(=O)N2C[C@H](F)C[C@H]2C(=O)Nc2ccccc2N2CCOC2=O)c2ccc(-c3ccnnc3)cc12 [Compound 65, 1-(2-((2S,4R)-4-fluoro-2-(2-(2-oxooxazolidin-3-yl)phenylcarbamoyl)pyrrolidin-1-yl)-2-oxoethyl)-5-(pyridazin-4-yl)-1H-indazole-3-carboxamide]	> 10
CC(=O)c1cn(CC(=O)N2C[C@H](F)C[C@H]2C(=O)Nc2cccc3c2CN(c2ccccn2)C3)c2ccc(-c3ccnnc3)cc12 [Compound 105, (2S,4R)-1-(2-(3-acetyl-5-(pyridazin-4-yl)-1H-indol-1-yl)acetyl)-4-fluoro-N-(2-(pyridin-2-yl)isoindolin-4-yl)pyrrolidine-2-carboxamide]	> 10
CC(=O)c1cn(CC(=O)N2C[C@@H](F)C[C@@H]2C(=O)NC2CCCN(c3ccccc3Cl)C2=O)c2ccc(-c3ccnnc3)cc12 (stereo partly drawn) [Compound 161, (2R,4S)-1-(2-(3-acetyl-5-(pyridazin-4-yl)-1H-indol-1-yl)acetyl)-N-(1-(2-chlorophenyl)-2-oxopiperidin-3-yl)-4-fluoropyrrolidine-2-carboxamide]	< 1
CC(=O)c1cn(CC(=O)N2C[C@H](F)C[C@H]2C(=O)Nc2cccc(Cl)c2-n2cncn2)c2ccc(-c3ccnnc3)cc12 [Compound 95, (2S,4R)-1-(2-(3-acetyl-5-(pyridazin-4-yl)-1H-indol-1-yl)acetyl)-N-(3-chloro-2-(1H-1,2,4-triazol-1-yl)phenyl)-4-fluoropyrrolidine-2-carboxamide]	> 10
CC(=O)c1cn(CC(=O)N2C[C@H](F)C[C@H]2C(=O)Nc2cccc(-c3ccccc3Cl)c2F)c2ccc(-c3ccc(C)nc3)cc12 [Compound 151, (2S,4R)-1-(2-(3-acetyl-5-(6-methylpyridin-3-yl)-1H-indol-1-yl)acetyl)-N-(2′-chloro-2-fluorobiphenyl-3-yl)-4-fluoropyrrolidine-2-carboxamide]	< 1
CC(=O)c1cn(CC(=O)N2C[C@H](F)C[C@H]2C(=O)Nc2nnc(-c3ccc(Cl)c(Cl)c3)s2)c2ccc(-c3ccnnc3)cc12 [Compound 117, (2S,4R)-1-(2-(3-acetyl-5-(pyridazin-4-yl)-1H-indol-1-yl)acetyl)-N-(5-(3,4-dichlorophenyl)-1,3,4-thiadiazol-2-yl)-4-fluoropyrrolidine-2-carboxamide]	> 10
NC(=O)c1nn(CC(=O)N2C[C@H](F)C[C@H]2C(=O)Nc2cccc(-c3ccccc3Cl)c2F)c2ccc(-c3cncnc3)cc12 [Compound 2]	< 1
NC(=O)c1nn(CC(=O)N2C[C@H](F)C[C@H]2C(=O)Nc2nc(-c3ccc4c(c3)CCCC4)cs2)c2ccc(-c3ccnnc3)cc12 [Compound 55, 1-(2-((2S,4R)-4-fluoro-2-(4-(5,6,7,8-tetrahydronaphthalen-2-yl)thiazol-2-ylcarbamoyl)pyrrolidin-1-yl)-2-oxoethyl)-5-(pyridazin-4-yl)-1H-indazole-3-carboxamide]	> 10
CC(=O)Nc1ncc(-c2ccc3c(c2)c(C(C)=O)cn3CC(=O)N2C[C@H](F)C[C@H]2C(=O)Nc2cccc(-c3ccccc3Cl)c2F)cn1 [Compound 138, (2S,4R)-1-(2-(5-(2-acetamidopyrimidin-5-yl)-3-acetyl-1H-indol-1-yl)acetyl)-N-(2′-chloro-2-fluorobiphenyl-3-yl)-4-fluoropyrrolidine-2-carboxamide]	< 1
CC(=O)c1cn(CC(=O)N2C[C@H](F)C[C@H]2C(=O)Nc2ccc(CNC(=O)OCC3c4ccccc4-c4ccccc43)cc2)c2ccc(-c3ccnnc3)cc12 [Compound 61]	> 10
NC(=O)c1nn(CC(=O)N2C[C@H](F)C[C@H]2C(=O)N[C@@H]2CCC[C@@H]2OCc2ccccc2)c2ccc(-c3ccnnc3)cc12 [Compound 51, 1-(2-((2S,4R)-2-((1R,2S)-2-(benzyloxy)cyclopentylcarbamoyl)-4-fluoropyrrolidin-1-yl)-2-oxoethyl)-5-(pyridazin-4-yl)-1H-indazole-3-carboxamide]	> 10
CC(=O)c1cn(CC(=O)N2C[C@H](F)C[C@H]2C(=O)Nc2ccc3ccccc3c2)c2ccc(-c3ccnnc3)cc12 [Compound 110, (2S,4R)-1-(2-(3-acetyl-5-(pyridazin-4-yl)-1H-indol-1-yl)acetyl)-4-fluoro-N-(naphthalen-2-yl)pyrrolidine-2-carboxamide]	> 10
NC(=O)c1nn(CC(=O)N2C[C@H](F)C[C@H]2C(=O)Nc2cncc(Cl)n2)c2ccc(-c3ccnnc3)cc12 [Compound 89, 1-(2-((2S,4R)-2-(6-chloropyrazin-2-ylcarbamoyl)-4-fluoropyrrolidin-1-yl)-2-oxoethyl)-5-(pyridazin-4-yl)-1H-indazole-3-carboxamide]	< 1
Cc1ncc(-c2ccc3c(c2)c(C(N)=O)nn3CC(=O)N2C[C@H](F)C[C@H]2C(=O)Nc2cccc(-c3ccccc3Cl)c2F)cn1 [Compound 103, 1-(2-((2S,4R)-2-(2′-chloro-2-fluorobiphenyl-3-ylcarbamoyl)-4-fluoropyrrolidin-1-yl)-2-oxoethyl)-5-(2-methylpyrimidin-5-yl)-1H-indazole-3-carboxamide]	< 1
CC(=O)c1cn(CC(=O)N2C[C@H](F)C[C@H]2C(=O)N[C@H]2CCCC[C@@H]2OCc2ccccc2)c2ccc(-c3ccnnc3)cc12 [Compound 74, (2S,4R)-1-(2-(3-acetyl-5-(pyridazin-4-yl)-1H-indol-1-yl)acetyl)-N-((1S,2S)-2-(benzyloxy)cyclohexyl)-4-fluoropyrrolidine-2-carboxamide]	> 10
CC(=O)c1cn(CC(=O)N2C[C@H](F)C[C@H]2C(=O)Nc2nc(-c3ccccc3Cl)ns2)c2ccc(-c3ccnnc3)cc12 [Compound 99, (2S,4R)-1-(2-(3-acetyl-5-(pyridazin-4-yl)-1H-indol-1-yl)acetyl)-N-(3-(2-chlorophenyl)-1,2,4-thiadiazol-5-yl)-4-fluoropyrrolidine-2-carboxamide]	< 1
COc1ncc(-c2ccc3c(c2)c(C(N)=O)nn3CC(=O)N2C[C@H](F)C[C@H]2C(=O)Nc2cccc(Cl)n2)cn1 [Compound 30, 1-(2-((2S,4R)-2-(6-chloropyridin-2-ylcarbamoyl)-4-fluoropyrrolidin-1-yl)-2-oxoethyl)-5-(2-methoxypyrimidin-5-yl)-1H-indazole-3-carboxamide]	< 1
